This is an account of results in ChEMBL document CHEMBL1909046, “DrugMatrix in vitro pharmacology data”.

For assay [1], the target named is Mitogen-activated protein kinase 1 (Homo sapiens, UniProt P28482). As to the kind of experiment: DRUGMATRIX: Protein Serine/Threonine Kinase, ERK2 enzyme inhibition (substrate: Myelin Basic Protein). On the set-up: species or system Escherichia coli. Particulars: Not Active = under 50% inhibition at 10 µM.
A short description of assay [2]: DRUGMATRIX: Sodium/nucleoside co-transporter radioligand binding (ligand: nitrobenzylthioinosine). The assay is classed as cell membranes, Cavia porcellus, Dunkin-Hartley, Cerebral cortex, Membrane. The conditions noted are these: Not Active = under 50% inhibition at 10 µM.
In assay [3] the target is Mitogen-activated protein kinase 3 (Homo sapiens, UniProt P27361). As to the kind of experiment: DRUGMATRIX: Protein Serine/Threonine Kinase, ERK1 enzyme inhibition (substrate: Myelin Basic Protein). Also on record: species or system Escherichia coli. Particulars: Not Active = under 50% inhibition at 10 µM.
The target in assay [4] is T1, Type-2 angiotensin II receptor (Homo sapiens, UniProt P50052). Further: in other assays of this panel Not Active means under 50% inhibition at 10 µM.
T1 sequence (P50052 whole entry): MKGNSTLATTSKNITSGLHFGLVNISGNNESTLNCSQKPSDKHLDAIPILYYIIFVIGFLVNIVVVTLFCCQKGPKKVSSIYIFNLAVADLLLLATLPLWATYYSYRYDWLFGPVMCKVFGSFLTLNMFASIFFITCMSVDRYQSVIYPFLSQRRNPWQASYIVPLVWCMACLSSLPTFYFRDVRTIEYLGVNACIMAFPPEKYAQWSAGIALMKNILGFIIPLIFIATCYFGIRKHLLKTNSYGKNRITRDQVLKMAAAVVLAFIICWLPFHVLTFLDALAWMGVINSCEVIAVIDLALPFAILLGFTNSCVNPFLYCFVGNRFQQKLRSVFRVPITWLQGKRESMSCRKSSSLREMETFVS
As to the kind of experiment: biochemical. The assay is classed as cell-based, CHO-K1. The conditions noted are these: cho-k1.

Assay [5] in a line: DRUGMATRIX: Leukotriene, BLT (LTB4) radioligand binding (ligand: [3H]LTB4). The assay is classed as cell membranes, Membrane. Particulars: u-937, Not Active = under 50% inhibition at 10 µM.
For assay [6], the target named is T2, Angiotensin-converting enzyme (Oryctolagus cuniculus, UniProt P12822).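 Further: enzymatic inhibition of angiotensin-converting enzyme measured with FAPGG as the substrate; in other assays of this panel Not Active means under 50% inhibition at 10 µM.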
T2 sequence (P12822 whole entry): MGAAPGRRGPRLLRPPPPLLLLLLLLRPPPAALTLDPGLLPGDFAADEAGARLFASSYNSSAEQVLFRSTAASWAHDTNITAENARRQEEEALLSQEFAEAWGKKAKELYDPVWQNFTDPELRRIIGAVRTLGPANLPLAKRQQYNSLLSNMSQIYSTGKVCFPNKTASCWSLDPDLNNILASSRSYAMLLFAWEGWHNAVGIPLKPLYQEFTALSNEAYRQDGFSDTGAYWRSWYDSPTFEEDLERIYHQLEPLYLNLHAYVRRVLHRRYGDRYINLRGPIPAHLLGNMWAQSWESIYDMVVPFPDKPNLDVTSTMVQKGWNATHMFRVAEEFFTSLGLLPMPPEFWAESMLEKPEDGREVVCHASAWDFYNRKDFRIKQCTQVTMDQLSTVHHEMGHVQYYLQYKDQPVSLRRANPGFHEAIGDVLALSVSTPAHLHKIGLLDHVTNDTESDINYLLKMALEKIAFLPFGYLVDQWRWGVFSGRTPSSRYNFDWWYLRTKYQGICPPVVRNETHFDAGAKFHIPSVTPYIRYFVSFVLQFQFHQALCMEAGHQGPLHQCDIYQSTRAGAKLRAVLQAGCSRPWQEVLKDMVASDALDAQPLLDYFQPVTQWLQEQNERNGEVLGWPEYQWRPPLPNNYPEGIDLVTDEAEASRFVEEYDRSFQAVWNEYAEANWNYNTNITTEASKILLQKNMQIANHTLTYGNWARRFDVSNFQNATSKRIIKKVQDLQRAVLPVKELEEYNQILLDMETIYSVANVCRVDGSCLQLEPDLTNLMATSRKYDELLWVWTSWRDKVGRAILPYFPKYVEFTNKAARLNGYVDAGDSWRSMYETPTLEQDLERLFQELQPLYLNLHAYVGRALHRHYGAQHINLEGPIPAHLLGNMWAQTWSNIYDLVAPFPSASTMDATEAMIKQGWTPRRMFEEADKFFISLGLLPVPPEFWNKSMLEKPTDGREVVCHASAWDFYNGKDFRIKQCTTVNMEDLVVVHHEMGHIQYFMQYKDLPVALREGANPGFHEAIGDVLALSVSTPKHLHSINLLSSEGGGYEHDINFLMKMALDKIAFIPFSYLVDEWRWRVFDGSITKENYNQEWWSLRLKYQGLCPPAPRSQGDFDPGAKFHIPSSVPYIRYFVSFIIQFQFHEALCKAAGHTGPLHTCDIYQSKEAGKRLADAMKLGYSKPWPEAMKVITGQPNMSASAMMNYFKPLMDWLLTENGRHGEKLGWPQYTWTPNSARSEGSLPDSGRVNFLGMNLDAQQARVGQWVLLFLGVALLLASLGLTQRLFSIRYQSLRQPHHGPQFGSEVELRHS
The assay is classed as tissue-based, Lung.

The nature of assay [7]: DRUGMATRIX: ATPase, Na+/K+ enzyme inhibition (substrate: ATP). The format is tissue-based, Sus scrofa, Heart. Particulars: Not Active = under 50% inhibition at 10 µM.

Mitogen-activated protein kinase 1, sequence (P28482 whole entry): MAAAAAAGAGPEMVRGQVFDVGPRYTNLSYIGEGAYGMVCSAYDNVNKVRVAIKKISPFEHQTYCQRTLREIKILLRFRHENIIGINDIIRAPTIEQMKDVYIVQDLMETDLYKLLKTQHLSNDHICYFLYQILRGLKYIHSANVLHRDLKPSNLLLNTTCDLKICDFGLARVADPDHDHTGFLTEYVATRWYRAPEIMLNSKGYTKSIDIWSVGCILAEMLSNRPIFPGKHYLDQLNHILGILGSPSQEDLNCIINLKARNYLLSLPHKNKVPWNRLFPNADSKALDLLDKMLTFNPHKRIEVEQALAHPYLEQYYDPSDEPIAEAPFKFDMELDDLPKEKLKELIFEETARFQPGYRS
Mitogen-activated protein kinase 3, sequence (P27361 whole entry): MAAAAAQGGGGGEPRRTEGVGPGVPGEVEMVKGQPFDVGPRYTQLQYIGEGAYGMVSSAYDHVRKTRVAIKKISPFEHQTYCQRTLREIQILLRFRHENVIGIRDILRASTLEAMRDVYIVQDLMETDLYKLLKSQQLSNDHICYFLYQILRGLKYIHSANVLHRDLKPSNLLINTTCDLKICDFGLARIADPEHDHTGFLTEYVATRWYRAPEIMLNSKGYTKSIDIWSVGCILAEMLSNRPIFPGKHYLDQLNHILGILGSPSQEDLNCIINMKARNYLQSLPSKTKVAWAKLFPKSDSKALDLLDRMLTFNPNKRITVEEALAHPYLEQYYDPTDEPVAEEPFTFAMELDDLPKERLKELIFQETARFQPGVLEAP

As a reminder, the IC50 is the concentration at which inhibition is half-maximal. By Ki is commonly meant the dissociation constant of the complex between target and ligand, obtained from inhibition or displacement. Consider `C[C@@H]1O[C@@H](O[C@H]2C[C@@H](O)[C@]3(CO)[C@H]4[C@H](O)C[C@]5(C)[C@@H](C6=CC(=O)OC6)CC[C@]5(O)[C@@H]4CC[C@]3(O)C2)[C@H](O)[C@H](O)[C@H]1O` [OUABAIN], for which the concentration for half-maximal inhibition (IC50) entry in assay [1], in assay [2], in assay [3], in assay [4], in assay [5] and in assay [6] was “Not Active” each time. The IC50 in assay [7] (read-out: IC50) worked out at 0.678 µM. Besides, the inhibitory constant (Ki) result in assay [2] and in assay [5] was “Not Active” throughout.

With `NC(=O)N1c2ccccc2CC(=O)c2ccccc21` [OXCARBAZEPINE], the IC50 entry in assay [1], in assay [2], in assay [3], in assay [4], in assay [5] and in assay [6] was “Not Active” each time. Moreover, in assay [7], the half-inhibitory concentration (IC50) entry was “Not Active”. Also, the Ki result in assay [2], in assay [5] and in assay [7] was “Not Active” in each case.

As to `COc1ccnc(C[S+]([O-])c2nc3ccc(OC(F)F)cc3[nH]2)c1OC` (configuration not stated) [PANTOPRAZOLE], the IC50 entry in assay [1], in assay [2], in assay [3], in assay [4], in assay [5] and in assay [6] was “Not Active” each time. Further, the concentration for half-maximal inhibition (IC50) entry in assay [7] is “Not Active”. Also, the inhibitory constant (Ki) result in assay [2], in assay [5] and in assay [7] was “Not Active” in each case.

Take `N=C(N)c1ccc(OCCCCCOc2ccc(C(=N)N)cc2)cc1` [PENTAMIDINE]: the IC50 entry in assay [1] is “Not Active”; in assay [2], “Not Active”; in assay [3] it was “Not Active”; in assay [4] it was “Not Active”; in assay [5] (read-out: IC50), 0.242 µM; in assay [6], “Not Active”. Moreover, in assay [7], the half-inhibitory concentration (IC50) entry was “Not Active”. Further, the inhibitory constant (Ki) result is “Not Active” in assay [2], 0.061 µM in assay [5] (read-out: Ki) and “Not Active” in assay [7].

Take `NNCCc1ccccc1` [PHENELZINE]: the IC50 result in assay [1], in assay [2], in assay [3], in assay [4], in assay [5] and in assay [6] was “Not Active” each time. Besides, the concentration for half-maximal inhibition (IC50) result in assay [7] was “Not Active”. Further, the Ki result in assay [2], in assay [5] and in assay [7] was “Not Active” each time.

Consider `CCc1ccc(CCOc2ccc(CC3SC(=O)NC3=O)cc2)nc1` (configuration not stated) [PIOGLITAZONE], for which the IC50 entry is “Not Active” in assay [1]; “Not Active” in assay [2]; “Not Active” in assay [3]; “Not Active” in assay [4]; 86.9 µM in assay [5] (read-out: IC50); “Not Active” in assay [6]. Besides, the half-inhibitory concentration (IC50) entry in assay [7] is given as “Not Active”. Further, the inhibition constant Ki result in assay [2] is “Not Active”; in assay [5] (read-out: Ki), 22.1 µM; in assay [7], “Not Active”.

As for `CCCNC(C)C(=O)Nc1ccccc1C` (configuration not stated) [PRILOCAINE], the half-maximal inhibitory concentration (IC50) result in assay [1], in assay [2], in assay [3], in assay [4], in assay [5] and in assay [6] was “Not Active” throughout. Also, the concentration for half-maximal inhibition (IC50) entry in assay [7] is listed as “Not Active”. Moreover, the inhibition constant Ki entry in assay [2], in assay [5] and in assay [7] was “Not Active” each time.

With `CCN(CC)CCNC(=O)c1ccc(N)cc1` [PROCAINAMIDE], the concentration for half-maximal inhibition (IC50) result in assay [1], in assay [2], in assay [3], in assay [4], in assay [5] and in assay [6] was “Not Active” in each case. In addition, in assay [7], the IC50 entry is on record as “Not Active”. In addition, the inhibition constant Ki entry in assay [2], in assay [5] and in assay [7] was “Not Active” each time.

Consider `CCN(CC)CCCC(C)Nc1c2ccc(Cl)cc2nc2ccc(OC)cc12` (configuration not stated) [QUINACRINE], for which the half-inhibitory concentration (IC50) entry in assay [1], in assay [2], in assay [3], in assay [4], in assay [5] and in assay [6] was “Not Active” each time. Further, in assay [7], the IC50 entry is “Not Active”. Besides, the inhibition constant Ki result in assay [2], in assay [5] and in assay [7] was “Not Active” throughout.

On to `C[C@]12C=CC(=O)C=C1CC[C@H]1[C@@H]3C[C@@H](O)[C@](O)(C(=O)CO)[C@@]3(C)C[C@H](O)[C@@]12F` [TRIAMCINOLONE], for which the IC50 result in assay [1], in assay [2], in assay [3], in assay [4], in assay [5] and in assay [6] was “Not Active” in each case. For the same compound, the IC50 entry in assay [7] was “Not Active”. The Ki result in assay [2], in assay [5] and in assay [7] was “Not Active” in each case.

As to `CC[C@]1(O)C[C@@H]2CN(CCc3c([nH]c4ccccc34)[C@@](C(=O)OC)(c3cc4c(cc3OC)N(C)[C@H]3[C@@](O)(C(N)=O)[C@H](O)[C@]5(CC)C=CCN6CC[C@]43[C@@H]65)C2)C1` [VINDESINE], the concentration for half-maximal inhibition (IC50) entry in assay [1], in assay [2], in assay [3], in assay [4], in assay [5] and in assay [6] was “Not Active” in each case. Further, the half-inhibitory concentration (IC50) result in assay [7] is “Not Active”. Moreover, the inhibition constant Ki result in assay [2], in assay [5] and in assay [7] was “Not Active” throughout.

Take `CCN(C(C)=O)c1cccc(-c2ccnc3c(C#N)cnn23)c1` [ZALEPLON]: the IC50 result in assay [1], in assay [2], in assay [3], in assay [4], in assay [5] and in assay [6] was “Not Active” in each case. Also, in assay [7], the IC50 entry is given as “Not Active”. In addition, the Ki entry in assay [2], in assay [5] and in assay [7] was “Not Active” each time.

For the compound COBALTOUS CHLORIDE, the IC50 entry in assay [1], in assay [2], in assay [3], in assay [4], in assay [5] and in assay [6] was “Not Active” throughout. The 50% inhibitory concentration (IC50) entry in assay [7] was “Not Active”. In addition, the Ki result in assay [1], in assay [2], in assay [3], in assay [4], in assay [5] and in assay [6] was “Not Active” each time. Further, the inhibitory constant (Ki) result in assay [7] was “Not Active”.

On to COLISTIN, for which the IC50 entry in assay [1], in assay [2], in assay [3], in assay [4], in assay [5] and in assay [6] was “Not Active” throughout. In assay [7], the 50% inhibitory concentration (IC50) entry was “Not Active”. The Ki entry in assay [1], in assay [2], in assay [3], in assay [4], in assay [5] and in assay [6] was “Not Active” in each case. Further, in assay [7], the Ki entry was “Not Active”.
